Test [1] concerns the target T1, AKR1C3 (Homo sapiens, UniProt P42330).
T1 construct: AKR1C3 human ORF-Clone transiently over-expressed in HEK293 cells
T1 sequence (P42330 1-323): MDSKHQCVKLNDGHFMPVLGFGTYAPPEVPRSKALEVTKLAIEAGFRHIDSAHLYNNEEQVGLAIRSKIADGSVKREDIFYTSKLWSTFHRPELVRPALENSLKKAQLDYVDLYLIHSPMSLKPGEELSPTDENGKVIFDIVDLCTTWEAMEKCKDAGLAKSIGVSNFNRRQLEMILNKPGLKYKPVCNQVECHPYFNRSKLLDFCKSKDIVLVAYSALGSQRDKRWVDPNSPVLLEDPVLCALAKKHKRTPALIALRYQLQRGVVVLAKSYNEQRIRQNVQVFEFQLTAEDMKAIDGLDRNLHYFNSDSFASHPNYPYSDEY
Briefly: idarubicinol formation (UPLC-MS/MS) in AKR1C3-transfected HEK293 cells versus empty-vector cells, […] idarubicin. Type of test: cell-based.

Test [2] addresses T1, AKR1C3. Briefly: inhibition of idarubicinol formation (UPLC-MS/MS) in HEK293 cells over-expressing AKR1C3, compared with empty-vector control. Type of test: cell-based.

The structures appear in SMILES notation.

Results on two compounds are retold here after PMC10861747, “In vitro evaluation of the reductive carbonyl idarubicin metabolism to evaluate inhibitors of the formation of cardiotoxic idarubicinol via carbonyl and aldo–keto reductases” (Archives of Toxicology, 2024).

The IC50 is the concentration that gives 50% inhibition.

With `CC(=O)[C@]1(O)Cc2c(O)c3c(c(O)c2[C@@H](O[C@H]2C[C@H](N)[C@H](O)[C@H](C)O2)C1)C(=O)c1ccccc1C3=O` [idarubicin], the “idarubicinol formation (UPLC-MS/MS) in AKR1C3-transfected HEK293 cells versus em” value on AKR1C3 [1] is reported as “the over-expression lead to a significantly higher idarubicinol formation in HEK293 cells”.
Take `O=C1C[C@@]2(C(=O)N1)C(=O)N(Cc1ccc(Br)cc1F)C(=O)c1cccn12` [ranirestat]: at AKR1C3 [2], 0.5 ± 0.1 µM corresponded to half-maximal inhibition (IC50).
